Active and inactive are the calls of the source. The rule behind the calls is not given here.
Columns and labels:
[1] = Cellular uptake in human macrophages infected with amastigote form of Leishmania donovani MHOM/SD/LEM3427 at 80 uM measured after 6 hrs by Hoechst-33342 staining based epifluorescence microscopy; format: ADME, cell-based; conditions: macrophage
[2] = Drug uptake in human macrophage cytoplasm infected with amastigote form of Leishmania donovani MHOM/SD/LEM3427 at 80 uM measured after 6 to 18 hrs by Hoechst-33342 staining based epifluorescence microscopy; format: ADME
Leishmania donovani [3] = test: Antileishmanial activity against amastigote form of Leishmania donovani MHOM/SD/LEM3427 infected in human macrophages assessed as phenotypic surface alterations by MGG-staining based analysis; format: functional
Leishmania donovani [4] = test: Antileishmanial activity against amastigote form of Leishmania donovani MHOM/SD/LEM3427 infected in human macrophages assessed as reduction in macrophage infection at 80 uM measured after 48 hrs; format: functional
Leishmania donovani [5] = test: Antileishmanial activity against amastigote form of Leishmania donovani MHOM/SD/LEM3427 infected in human macrophages assessed as reduction in amastigote multiplication at 80 uM measured after 48 hrs; format: functional

SMILES	Drug uptake [1]	Drug uptake [2]	Activity (Leishmania donovani [3])	Activity (Leishmania donovani [4])	Activity (Leishmania donovani [5])
O=C(O)c1cc(NC(=S)NCCCCCCO[C@@H]2O[C@@H]([C@H](O)CO)[C@H](O)[C@H]2O)ccc1-c1c2ccc(=O)cc-2oc2cc(O)ccc12	Active	Active	–	–	–
CC/N=c1\cc2oc3cc(NCC)c(C)cc3c(-c3ccccc3C(=O)OCC)c-2cc1C.Cl [RHODAMINE 6G HYDROCHLORIDE]	Active	Active	Active	–	–
CC/N=c1/cc2oc3cc(NCC)c(C)cc3c(-c3ccccc3C(=O)NCCCCCCO[C@@H]3O[C@@H]([C@H](O)CO)[C@H](O)[C@H]3O)c-2cc1C.Cl	Active	Active	–	Active	Active

Source: ChEMBL document CHEMBL3875198, “Synthesis and biological properties of galactofuranosyl-containing fluorescent dyes” (Bioorg Med Chem Lett, 2017)
